Results published in patent US20080070867A1, “2-Imidazolone and 2-Imidazolidinone Heterocyclic Inhibitors of Tyrosine Phosphatases” (Metabasis Therapeutics, Inc., priority 2005, published 2008).

Target: T1, Human recombinant PTP-1B (Homo sapiens, UniProt P18031)
T1 construct: Human recombinant PTP-1B, containing amino acids 1-321, fused to GST enzyme; GST (glutathione S-transferase)
T1 sequence (P18031 1-321): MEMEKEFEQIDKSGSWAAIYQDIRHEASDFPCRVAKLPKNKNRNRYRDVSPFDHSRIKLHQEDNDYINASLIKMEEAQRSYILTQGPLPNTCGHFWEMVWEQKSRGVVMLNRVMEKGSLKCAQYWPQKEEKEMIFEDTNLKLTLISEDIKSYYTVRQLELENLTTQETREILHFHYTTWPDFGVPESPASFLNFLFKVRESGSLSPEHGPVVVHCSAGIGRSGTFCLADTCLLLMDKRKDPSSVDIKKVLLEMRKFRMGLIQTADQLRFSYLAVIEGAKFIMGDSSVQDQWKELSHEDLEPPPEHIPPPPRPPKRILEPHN
Assay: Assay for PTP-1B Activity (pNPP substrate)
Format: biochemical
Details: human recombinant PTP-1B (1-321) GST fusion, 2 mM pNPP, pH 7.4, 30° C., 20 min; read-out: Activity Code (IC50 range)
Text: The activity of the compounds as modulators of protein tyrosine phosphatase, including PTP-1B, may be measured in standard assays (see, e.g., Examples 41 and 42). Briefly, the assay described herein employs human recombinant PTP-1B and a pNPP substrate in a rescue assay.
Assay for PTP-1B Activity
Enzyme: Human recombinant PTP-1B, containing amino acids 1-321, fused to GST enzyme (glutathione S-transferase) purified by affinity chromatography (Huyer et al, 1997, J. Biol. Chem., 272, 843-852).
pNPP: p-Nitrophenyl Phosphate (Calbiochem)
Assay Buffer: 50 mM HEPES (pH 7.4), 100 mM NaCl, 2 mM EDTA, 3 mM DTT
(5×) pNPP substrate: 10 mM pNPP in assay buffer
Enzyme: 1 mg/ml PTP1B (1-321), dilute 1:200 in assay buffer
Assay buffer: 50 mM HEPES (pH 7.4), 100 mM NaCl, 2 mM EDTA, 3 mM DTT
Enzyme dilution buffer: 50 mM HEPES (pH 7.4), 100 mM NaCl, 2 mM EDTA, 3 mM DTT
Substrate 198 mM p-Nitrophenyl Phosphate (pNPP) store at 4° C.
The assay was carried out at 30° C. in 96 well plates. The reaction mixture in 60 ul contained 50 mM HEPES (pH 7.4), 100 mM NaCl, 2 mM EDTA, 3 mM DTT, and 2 mM p-Nitrophenyl Phosphate (pNPP). 5 ul of the test compound (inhibitor) dissolved in DMSO or DMSO alone for control was added to each well and the plate was mixed for 2 min. The reaction was initiated by adding 20 ul of diluted PTP1B (5 ng/ul in 50 mM HEPES (pH 7.4), 100 mM NaCl, 2 mM EDTA, 3 mM DTT). After 20 min at 30° C., the enzyme reaction was terminated by adding 100 ul of 2 M K2CO3 to each well. The phosphatase activity was detected by using Victor II plate reader (Wallac) with absorbance detection at 405 nm. All the assays were done at least in duplicate. The initial rate of pNP is plotted against the concentration of inhibitor.

| IC50 | Structure (SMILES) |
| --- | --- |
| 250 to 2500 nM | CNC(=O)c1ccc(-c2cn(Cc3ccccc3)c(=O)n2Cc2ccc(C(F)(F)P(=O)(O)O)c(Br)c2)cc1 [Compound 28, ({4-[3-Benzyl-5-(4-methylcarbamoyl-phenyl)-2-oxo-2,3-dihydro-imidazol-1-ylmethyl]-2-bromo-phenyl}-difluoro-methyl)-phosphonic acid] |
| 250 to 2500 nM | O=c1n(Cc2ccccc2)cc(-c2ccccc2)n1Cc1ccc(C(F)(F)P(=O)(O)O)c(Br)c1 [Compound 29, {[4-(3-Benzyl-2-oxo-5-phenyl-2,3-dihydro-imidazol-1-ylmethyl)-2-bromo-phenyl]-difluoro-methyl}-phosphonic acid] |
| 250 to 2500 nM | O=c1n(Cc2ccccc2)cc(-c2ccc3c(c2)OCCO3)n1Cc1ccc(C(F)(F)P(=O)(O)O)c(Br)c1 [Compound 30, ({4-[3-Benzyl-5-(2,3-dihydro-benzo[1,4]dioxin-6-yl)-2-oxo-2,3-dihydro-imidazol-1-ylmethyl]-2-bromo-phenyl}-difluoro-methyl)-phosphonic acid] |
| 250 to 2500 nM | N#Cc1cccc(-c2cn(Cc3ccccc3)c(=O)n2Cc2ccc(C(F)(F)P(=O)(O)O)c(Br)c2)c1 [Compound 31, ({4-[3-Benzyl-5-(3-cyano-phenyl)-2-oxo-2,3-dihydro-imidazol-1-ylmethyl]-2-bromo-phenyl}-difluoro-methyl)-phosphonic acid] |
| < 99 nM | CS(=O)(=O)c1ccc(-c2cn(Cc3cccc(N)c3)c(=O)n2Cc2ccc(C(F)(F)P(=O)(O)O)c(Br)c2)cc1 [Compound 32, ({4-[3-(3-Amino-benzyl)-5-(4-methanesulfonyl-phenyl)-2-oxo-2,3-dihydro-imidazol-1-ylmethyl]-2-bromo-phenyl}-difluoro-methyl)-phosphonic acid] |
| 250 to 2500 nM | O=c1n(CC2CC2)cc(-c2ccccc2)n1Cc1ccc(C(F)(F)P(=O)(O)O)c(Br)c1 [Compound 33, {[2-Bromo-4-(3-cyclopropylmethyl-2-oxo-5-phenyl-2,3-dihydro-imidazol-1-ylmethyl)-phenyl]-difluoro-methyl}-phosphonic acid] |
| 250 to 2500 nM | COc1cc(Cn2cc(-c3ccc(C(=O)O)cc3)n(Cc3ccc(C(F)(F)P(=O)(O)O)c(Br)c3)c2=O)cc(OC)c1 [Compound 34, 4-[3-[3-Bromo-4-(difluoro-phosphono-methyl)-benzyl]-1-(3,5-dimethoxy-benzyl)-2-oxo-2,3-dihydro-1H-imidazol-4-yl]-benzoic acid] |
| 250 to 2500 nM | O=C(O)c1ccc(-c2cn(C3CC3)c(=O)n2Cc2ccc(C(F)(F)P(=O)(O)O)c(Br)c2)cc1 [Compound 35, 4-{3-[3-Bromo-4-(difluoro-phosphono-methyl)-benzyl]-1-cyclopropyl-2-oxo-2,3-dihydro-1H-imidazol-4-yl}-benzoic acid] |
| 250 to 2500 nM | O=C(O)c1ccc(-c2cn(Cc3ccccn3)c(=O)n2Cc2ccc(C(F)(F)P(=O)(O)O)c(Br)c2)cc1 [Compound 36, 4-{3-[3-Bromo-4-(difluoro-phosphono-methyl)-benzyl]-2-oxo-1-pyridin-2-ylmethyl-2,3-dihydro-1H-imidazol-4-yl}-benzoic acid] |
| 250 to 2500 nM | CCOC(=O)n1cc(-c2ccc(C(=O)OC)cc2)n(Cc2ccc(C(F)(F)P(=O)(O)O)c(Br)c2)c1=O [Compound 37, 3-[3-Bromo-4-(difluoro-phosphono-methyl)-benzyl]-4-(4-methoxycarbonyl-phenyl)-2-oxo-2,3-dihydro-imidazole-1-carboxylic acid ethyl ester] |
| 250 to 2500 nM | COC(=O)c1ccc(-c2cn(C)c(=O)n2Cc2ccc(C(F)(F)P(=O)(O)O)c(Br)c2)cc1 [Compound 38, 4-{3-[3-Bromo-4-(difluoro-phosphono-methyl)-benzyl]-1-methyl-2-oxo-2,3-dihydro-1H-imidazol-4-yl}-benzoic acid methyl ester] |
| 250 to 2500 nM | O=c1n(Cc2ccccc2)cc(-c2ccsc2)n1Cc1ccc(C(F)(F)P(=O)(O)O)c(Br)c1 [Compound 39, {[4-(3-Benzyl-2-oxo-5-thiophen-3-yl-2,3-dihydro-imidazol-1-ylmethyl)-2-bromo-phenyl]-difluoro-methyl}-phosphonic acid] |
| < 99 nM | CC(=O)Nc1cccc(Cn2cc(-c3ccc(S(C)(=O)=O)cc3)n(Cc3ccc(C(F)(F)P(=O)(O)O)c(Br)c3)c2=O)c1 [Compound 40, ({4-[3-(3-Acetylamino-benzyl)-5-(4-methanesulfonyl-phenyl)-2-oxo-2,3-dihydro-imidazol-1-ylmethyl]-2-bromo-phenyl}-difluoro-methyl)-phosphonic acid] |
| 250 to 2500 nM | COC(=O)c1ccc(-c2c[nH]c(=O)n2Cc2ccc(C(F)(F)P(=O)(O)O)c(Br)c2)cc1 [Compound 41, 4-{3-[3-Bromo-4-(difluoro-phosphono-methyl)-benzyl]-2-oxo-2,3-dihydro-1H-imidazol-4-yl}-benzoic acid methyl ester] |
| 250 to 2500 nM | Cn1cc(-c2ccc(C(=O)O)cc2)n(Cc2ccc(C(F)(F)P(=O)(O)O)c(Br)c2)c1=O [Compound 42, 4-{3-[3-Bromo-4-(difluoro-phosphono-methyl)-benzyl]-1-methyl-2-oxo-2,3-dihydro-1H-imidazol-4-yl}-benzoic acid] |
| 2500 to 25000 nM | O=c1n(Cc2ccc(C(F)(F)P(=O)(O)O)c(Br)c2)ccn1-c1ccccc1 [Compound 43, {[2-Bromo-4-(2-oxo-3-phenyl-2,3-dihydro-imidazol-1-ylmethyl)-phenyl]-difluoro-methyl}-phosphonic acid] |
| 250 to 2500 nM | O=c1n(Cc2ccccc2)cc(-c2cccs2)n1Cc1ccc(C(F)(F)P(=O)(O)O)c(Br)c1 [Compound 44, {[4-(3-Benzyl-2-oxo-5-thiophen-2-yl-2,3-dihydro-imidazol-1-ylmethyl)-2-bromo-phenyl]-difluoro-methyl}-phosphonic acid] |
| < 99 nM | COC(=O)/C=C/c1ccc(-c2cn(C3CC3)c(=O)n2Cc2ccc(C(F)(F)P(=O)(O)O)c(Br)c2)cc1 [Compound 45, 3-(4-{3-[3-Bromo-4-(difluoro-phosphono-methyl)-benzyl]-1-cyclopropyl-2-oxo-2,3-dihydro-1H-imidazol-4-yl}-phenyl)-acrylic acid methyl ester] |
| < 99 nM | O=C(O)/C=C/c1ccc(-c2cn(C3CC3)c(=O)n2Cc2ccc(C(F)(F)P(=O)(O)O)c(Br)c2)cc1 [Compound 46, 3-(4-{3-[3-Bromo-4-(difluoro-phosphono-methyl)-benzyl]-1-cyclopropyl-2-oxo-2,3-dihydro-1H-imidazol-4-yl}-phenyl)-acrylic acid] |
| 100 to 249 nM | CCn1cc(-c2ccc(C(=O)OC)cc2)n(Cc2ccc(C(F)(F)P(=O)(O)O)c(Br)c2)c1=O [Compound 47, 4-{3-[3-Bromo-4-(difluoro-phosphono-methyl)-benzyl]-1-ethyl-2-oxo-2,3-dihydro-1H-imidazol-4-yl}-benzoic acid methyl ester] |
| 100 to 249 nM | CCCn1cc(-c2ccc(C(=O)OC)cc2)n(Cc2ccc(C(F)(F)P(=O)(O)O)c(Br)c2)c1=O [Compound 48, 4-{3-[3-Bromo-4-(difluoro-phosphono-methyl)-benzyl]-2-oxo-1-propyl-2,3-dihydro-1H-imidazol-4-yl}-benzoic acid methyl ester] |
| 250 to 2500 nM | O=c1n(Cc2ccccc2)cc(-c2ccc3c(c2)CCCC3)n1Cc1ccc(C(F)(F)P(=O)(O)O)c(Br)c1 [Compound 49, ({4-[3-Benzyl-2-oxo-5-(5,6,7,8-tetrahydro-naphthalen-2-yl)-2,3-dihydro-imidazol-1-ylmethyl]-2-bromo-phenyl}-difluoro-methyl)-phosphonic acid] |
| 250 to 2500 nM | CS(=O)(=O)c1ccc(Cn2ccn(Cc3ccc(C(F)(F)P(=O)(O)O)c(Br)c3)c2=O)cc1 [Compound 50, ({2-Bromo-4-[3-(4-methanesulfonyl-benzyl)-2-oxo-2,3-dihydro-imidazol-1-ylmethyl]-phenyl}-difluoro-methyl)-phosphonic acid] |
| 100 to 249 nM | COC(=O)COc1ccc(-c2cn(C3CC3)c(=O)n2Cc2ccc(C(F)(F)P(=O)(O)O)c(Br)c2)cc1 [Compound 51, (4-{3-[3-Bromo-4-(difluoro-phosphono-methyl)-benzyl]-1-cyclopropyl-2-oxo-2,3-dihydro-1H-imidazol-4-yl}-phenoxy)-acetic acid methyl ester] |
